Experimental data reported in the NIST ThermoML archive (doi:10.1016/j.tca.2007.03.018).

Assay: molar heat capacity at saturation pressure

C1C2CC3CC1CC(C14CC5CC(CC(C5)C1)C4)(C2)C3 [1,1'-biadamantane]
Conditions	molar heat capacity [J/K/mol]
306.17 K, Crystal 3, Small (less than 1 g) adiabatic calorimetry	347.5
307.06 K, Crystal 3, Small (less than 1 g) adiabatic calorimetry	348.5
307.82 K, Crystal 3, Small (less than 1 g) adiabatic calorimetry	349.9
309.07 K, Crystal 3, Small (less than 1 g) adiabatic calorimetry	351.4
309.47 K, Crystal 3, Small (less than 1 g) adiabatic calorimetry	352.2
311.07 K, Crystal 3, Small (less than 1 g) adiabatic calorimetry	354
311.11 K, Crystal 3, Small (less than 1 g) adiabatic calorimetry	354.6
312.75 K, Crystal 3, Small (less than 1 g) adiabatic calorimetry	356.8
313.06 K, Crystal 3, Small (less than 1 g) adiabatic calorimetry	356.9
314.38 K, Crystal 3, Small (less than 1 g) adiabatic calorimetry	359.1
315.04 K, Crystal 3, Small (less than 1 g) adiabatic calorimetry	359.6
316.02 K, Crystal 3, Small (less than 1 g) adiabatic calorimetry	361.4
317.02 K, Crystal 3, Small (less than 1 g) adiabatic calorimetry	362.4
317.64 K, Crystal 3, Small (less than 1 g) adiabatic calorimetry	363.7
319 K, Crystal 3, Small (less than 1 g) adiabatic calorimetry	365.1
319.26 K, Crystal 3, Small (less than 1 g) adiabatic calorimetry	366
320.52 K, Crystal 3, Small (less than 1 g) adiabatic calorimetry	367.5
320.8 K, Crystal 3, Small (less than 1 g) adiabatic calorimetry	367.7
321.41 K, Crystal 3, Small (less than 1 g) adiabatic calorimetry	368.7
322.3 K, Crystal 3, Small (less than 1 g) adiabatic calorimetry	370.2
322.43 K, Crystal 3, Small (less than 1 g) adiabatic calorimetry	370.1
323.19 K, Crystal 3, Small (less than 1 g) adiabatic calorimetry	371.6
324.05 K, Crystal 3, Small (less than 1 g) adiabatic calorimetry	372.5
324.09 K, Crystal 3, Small (less than 1 g) adiabatic calorimetry	372.8
324.98 K, Crystal 3, Small (less than 1 g) adiabatic calorimetry	374.1
325.67 K, Crystal 3, Small (less than 1 g) adiabatic calorimetry	375
325.87 K, Crystal 3, Small (less than 1 g) adiabatic calorimetry	375.2
326.76 K, Crystal 3, Small (less than 1 g) adiabatic calorimetry	376.5
327.28 K, Crystal 3, Small (less than 1 g) adiabatic calorimetry	377.6
327.65 K, Crystal 3, Small (less than 1 g) adiabatic calorimetry	377.8
328.53 K, Crystal 3, Small (less than 1 g) adiabatic calorimetry	379.5
328.89 K, Crystal 3, Small (less than 1 g) adiabatic calorimetry	380.4
329.42 K, Crystal 3, Small (less than 1 g) adiabatic calorimetry	380.9
330.31 K, Crystal 3, Small (less than 1 g) adiabatic calorimetry	382.3
330.5 K, Crystal 3, Small (less than 1 g) adiabatic calorimetry	384
331.19 K, Crystal 3, Small (less than 1 g) adiabatic calorimetry	388.1
332.05 K, Crystal 3, Small (less than 1 g) adiabatic calorimetry	401.3
332.08 K, Crystal 3, Small (less than 1 g) adiabatic calorimetry	395.6
332.9 K, Crystal 3, Small (less than 1 g) adiabatic calorimetry	409.2
333.64 K, Crystal 3, Small (less than 1 g) adiabatic calorimetry	409.5
333.73 K, Crystal 3, Small (less than 1 g) adiabatic calorimetry	418.7
334.55 K, Crystal 3, Small (less than 1 g) adiabatic calorimetry	433.2
335.12 K, Crystal 3, Small (less than 1 g) adiabatic calorimetry	446.3
335.33 K, Crystal 3, Small (less than 1 g) adiabatic calorimetry	453.8
336.07 K, Crystal 2, Small (less than 1 g) adiabatic calorimetry	469.6
336.53 K, Crystal 2, Small (less than 1 g) adiabatic calorimetry	499.5
336.81 K, Crystal 2, Small (less than 1 g) adiabatic calorimetry	461.5
337.59 K, Crystal 2, Small (less than 1 g) adiabatic calorimetry	432.8
337.89 K, Crystal 2, Small (less than 1 g) adiabatic calorimetry	481.7
338.4 K, Crystal 2, Small (less than 1 g) adiabatic calorimetry	410.4
339.25 K, Crystal 2, Small (less than 1 g) adiabatic calorimetry	400.5
339.33 K, Crystal 2, Small (less than 1 g) adiabatic calorimetry	423.8
340.12 K, Crystal 2, Small (less than 1 g) adiabatic calorimetry	396.8
340.86 K, Crystal 2, Small (less than 1 g) adiabatic calorimetry	403.4
340.99 K, Crystal 2, Small (less than 1 g) adiabatic calorimetry	393.9
341.87 K, Crystal 2, Small (less than 1 g) adiabatic calorimetry	393.4
342.42 K, Crystal 2, Small (less than 1 g) adiabatic calorimetry	398.5
342.75 K, Crystal 2, Small (less than 1 g) adiabatic calorimetry	393.3
343.63 K, Crystal 2, Small (less than 1 g) adiabatic calorimetry	393.7
343.99 K, Crystal 2, Small (less than 1 g) adiabatic calorimetry	395.4
344.52 K, Crystal 2, Small (less than 1 g) adiabatic calorimetry	394.3
345.4 K, Crystal 2, Small (less than 1 g) adiabatic calorimetry	395
345.57 K, Crystal 2, Small (less than 1 g) adiabatic calorimetry	396.6
346.29 K, Crystal 2, Small (less than 1 g) adiabatic calorimetry	395.9
347.15 K, Crystal 2, Small (less than 1 g) adiabatic calorimetry	397.4
347.17 K, Crystal 2, Small (less than 1 g) adiabatic calorimetry	396.8
348.06 K, Crystal 2, Small (less than 1 g) adiabatic calorimetry	397.6
348.72 K, Crystal 2, Small (less than 1 g) adiabatic calorimetry	398.5
348.95 K, Crystal 2, Small (less than 1 g) adiabatic calorimetry	398.4
349.84 K, Crystal 2, Small (less than 1 g) adiabatic calorimetry	399.5
350.3 K, Crystal 2, Small (less than 1 g) adiabatic calorimetry	400
351.09 K, Crystal 2, Small (less than 1 g) adiabatic calorimetry	401.1
351.88 K, Crystal 2, Small (less than 1 g) adiabatic calorimetry	403.6
352.68 K, Crystal 2, Small (less than 1 g) adiabatic calorimetry	402.9
353.46 K, Crystal 2, Small (less than 1 g) adiabatic calorimetry	405.6
354.28 K, Crystal 2, Small (less than 1 g) adiabatic calorimetry	404.8
355.03 K, Crystal 2, Small (less than 1 g) adiabatic calorimetry	407.3
355.88 K, Crystal 2, Small (less than 1 g) adiabatic calorimetry	406.9
356.61 K, Crystal 2, Small (less than 1 g) adiabatic calorimetry	409.2
357.47 K, Crystal 2, Small (less than 1 g) adiabatic calorimetry	408.7
358.18 K, Crystal 2, Small (less than 1 g) adiabatic calorimetry	411.3
359.05 K, Crystal 2, Small (less than 1 g) adiabatic calorimetry	411
359.75 K, Crystal 2, Small (less than 1 g) adiabatic calorimetry	413.4
360.64 K, Crystal 2, Small (less than 1 g) adiabatic calorimetry	412.9
361.32 K, Crystal 2, Small (less than 1 g) adiabatic calorimetry	415.4
362.22 K, Crystal 2, Small (less than 1 g) adiabatic calorimetry	414.6
362.88 K, Crystal 2, Small (less than 1 g) adiabatic calorimetry	417.5
363.82 K, Crystal 2, Small (less than 1 g) adiabatic calorimetry	416.7
364.44 K, Crystal 2, Small (less than 1 g) adiabatic calorimetry	419.7
365.3 K, Crystal 2, Large sample (1 g) DSC	422.2
365.4 K, Crystal 2, Small (less than 1 g) adiabatic calorimetry	418.8
366 K, Crystal 2, Small (less than 1 g) adiabatic calorimetry	421.6
366.98 K, Crystal 2, Small (less than 1 g) adiabatic calorimetry	420.9
367.55 K, Crystal 2, Small (less than 1 g) adiabatic calorimetry	423.3
368.55 K, Crystal 2, Small (less than 1 g) adiabatic calorimetry	423
